# Results reported in PubChem BioAssay (NCI).
#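 Cultured in 96-well plates, cells were exposed to test compound for 48 hours across five concentrations. The concentration for full growth arrest is given as TGI.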
# Tests used:
# Assay in all cases: DTP human tumour cell line panel, 48 h
# RXF 393 renal = test system: RXF 393 renal
# K-562 leukemia = test system: K-562 leukemia
# MALME-3M melanoma = test system: MALME-3M melanoma
# OVCAR-8 ovarian = test system: OVCAR-8 ovarian
# SN12C renal = test system: SN12C renal
# T-47D breast = test system: T-47D breast
# HCT-15 colon = test system: HCT-15 colon
# MDA-MB-231 breast = test system: MDA-MB-231 breast
# MCF7 breast = test system: MCF7 breast
# CCRF-CEM leukemia = test system: CCRF-CEM leukemia
# SR leukemia = test system: SR leukemia
# OVCAR-3 ovarian = test system: OVCAR-3 ovarian
# HOP-62 NSCLC = test system: HOP-62 NSCLC
# NCI-H522 lung = test system: NCI-H522 lung
# PC-3 prostate = test system: PC-3 prostate
# A498 renal = test system: A498 renal
# IGROV1 ovarian = test system: IGROV1 ovarian
# KM12 colon = test system: KM12 colon
# CAKI-1 renal = test system: CAKI-1 renal
# U251 CNS = test system: U251 CNS
# SW-620 colon = test system: SW-620 colon
# A549 NSCLC = test system: A549 NSCLC
# RPMI-8226 leukemia = test system: RPMI-8226 leukemia
# MOLT-4 leukemia = test system: MOLT-4 leukemia
# MDA-MB-435 = test system: MDA-MB-435
# HS 578T breast = test system: HS 578T breast
# SF-295 CNS = test system: SF-295 CNS
# UACC-62 melanoma = test system: UACC-62 melanoma
# COLO 205 colon = test system: COLO 205 colon
# MDA-N = test system: MDA-N
# 786-0 renal = test system: 786-0 renal
# HL-60(TB) leukemia = test system: HL-60(TB) leukemia
# M14 melanoma = test system: M14 melanoma
# NCI/ADR-RES ovarian = test system: NCI/ADR-RES ovarian
# SK-OV-3 ovarian = test system: SK-OV-3 ovarian
# ACHN renal = test system: ACHN renal
# SNB-19 CNS = test system: SNB-19 CNS
# SF-268 CNS = test system: SF-268 CNS
# NCI-H460 lung = test system: NCI-H460 lung
# NCI-H226 lung = test system: NCI-H226 lung
# DU-145 prostate = test system: DU-145 prostate
# HOP-92 NSCLC = test system: HOP-92 NSCLC
# OVCAR-4 ovarian = test system: OVCAR-4 ovarian
# EKVX NSCLC = test system: EKVX NSCLC
# UACC-257 melanoma = test system: UACC-257 melanoma
# HT29 colon = test system: HT29 colon
# LOX IMVI melanoma = test system: LOX IMVI melanoma
# BT-549 breast = test system: BT-549 breast
# SK-MEL-5 melanoma = test system: SK-MEL-5 melanoma
# HCT-116 colon = test system: HCT-116 colon
# UO-31 renal = test system: UO-31 renal
# SK-MEL-2 melanoma = test system: SK-MEL-2 melanoma
# NCI-H23 lung = test system: NCI-H23 lung
# OVCAR-5 ovarian = test system: OVCAR-5 ovarian
# SNB-75 CNS = test system: SNB-75 CNS
# HCC-2998 colon = test system: HCC-2998 colon
# SK-MEL-28 melanoma = test system: SK-MEL-28 melanoma
# TK-10 renal = test system: TK-10 renal
# SF-539 CNS = test system: SF-539 CNS
structure (smiles),measurement,setting,value
CCCCCCCCCCCC(=O)NCc1ccc(OC(=O)CCCCCCCCCCC)c(OC)c1,TGI,RXF 393 renal,> 100 µM
same,TGI,K-562 leukemia,> 100 µM
same,TGI,MALME-3M melanoma,> 100 µM
same,TGI,OVCAR-8 ovarian,> 100 µM
same,TGI,SN12C renal,> 100 µM
same,TGI,T-47D breast,> 100 µM
same,TGI,HCT-15 colon,> 100 µM
same,TGI,MDA-MB-231 breast,> 100 µM
same,TGI,MCF7 breast,> 100 µM
same,TGI,CCRF-CEM leukemia,11.6 µM
same,TGI,SR leukemia,> 92.8 µM
same,TGI,OVCAR-3 ovarian,> 100 µM
same,TGI,HOP-62 NSCLC,> 100 µM
same,TGI,NCI-H522 lung,12.2 µM
same,TGI,PC-3 prostate,97.9 µM
same,TGI,A498 renal,> 100 µM
same,TGI,IGROV1 ovarian,> 57.3 µM
same,TGI,KM12 colon,> 100 µM
same,TGI,CAKI-1 renal,> 100 µM
same,TGI,U251 CNS,> 100 µM
same,TGI,SW-620 colon,> 100 µM
same,TGI,A549 NSCLC,> 100 µM
same,TGI,RPMI-8226 leukemia,> 100 µM
same,TGI,MOLT-4 leukemia,> 100 µM
same,TGI,MDA-MB-435,> 100 µM
same,TGI,HS 578T breast,> 100 µM
same,TGI,SF-295 CNS,> 100 µM
same,TGI,UACC-62 melanoma,> 100 µM
same,TGI,COLO 205 colon,> 72.4 µM
same,TGI,MDA-N,> 100 µM
same,TGI,786-0 renal,> 100 µM
same,TGI,HL-60(TB) leukemia,37.8 µM
same,TGI,M14 melanoma,> 100 µM
same,TGI,NCI/ADR-RES ovarian,> 100 µM
same,TGI,SK-OV-3 ovarian,> 100 µM
same,TGI,ACHN renal,> 100 µM
same,TGI,SNB-19 CNS,> 100 µM
same,TGI,SF-268 CNS,> 100 µM
same,TGI,NCI-H460 lung,> 100 µM
same,TGI,NCI-H226 lung,> 100 µM
same,TGI,DU-145 prostate,> 100 µM
same,TGI,HOP-92 NSCLC,> 100 µM
same,TGI,OVCAR-4 ovarian,> 100 µM
same,TGI,EKVX NSCLC,> 100 µM
same,TGI,UACC-257 melanoma,> 100 µM
same,TGI,HT29 colon,> 100 µM
same,TGI,LOX IMVI melanoma,> 100 µM
same,TGI,BT-549 breast,> 100 µM
same,TGI,SK-MEL-5 melanoma,> 100 µM
same,TGI,HCT-116 colon,> 100 µM
same,TGI,UO-31 renal,> 100 µM
same,TGI,SK-MEL-2 melanoma,> 100 µM
same,TGI,NCI-H23 lung,> 100 µM
same,TGI,OVCAR-5 ovarian,> 100 µM
same,TGI,SNB-75 CNS,> 100 µM
same,TGI,HCC-2998 colon,> 100 µM
same,TGI,SK-MEL-28 melanoma,> 100 µM
same,TGI,TK-10 renal,> 100 µM
same,TGI,SF-539 CNS,16.7 µM
CCCCC(=O)OC[n+]1ccc(-c2c(COC(=O)NC(C)C)c(COC(=O)NC(C)C)c3n2CCC3)cc1,TGI,RXF 393 renal,> 100 µM
same,TGI,K-562 leukemia,> 100 µM
same,TGI,MALME-3M melanoma,> 100 µM
same,TGI,OVCAR-8 ovarian,> 100 µM
same,TGI,SN12C renal,> 100 µM
same,TGI,T-47D breast,> 100 µM
same,TGI,HCT-15 colon,> 100 µM
same,TGI,MDA-MB-231 breast,> 100 µM
same,TGI,MCF7 breast,> 100 µM
same,TGI,CCRF-CEM leukemia,> 100 µM
same,TGI,SR leukemia,> 84.4 µM
same,TGI,OVCAR-3 ovarian,> 100 µM
same,TGI,HOP-62 NSCLC,> 100 µM
same,TGI,NCI-H522 lung,> 100 µM
same,TGI,PC-3 prostate,> 100 µM
same,TGI,A498 renal,76.5 µM
same,TGI,IGROV1 ovarian,> 100 µM
same,TGI,KM12 colon,> 100 µM
same,TGI,CAKI-1 renal,> 100 µM
same,TGI,U251 CNS,> 100 µM
same,TGI,SW-620 colon,> 100 µM
same,TGI,A549 NSCLC,> 100 µM
same,TGI,RPMI-8226 leukemia,> 100 µM
same,TGI,MOLT-4 leukemia,> 80.7 µM
same,TGI,MDA-MB-435,> 100 µM
same,TGI,HS 578T breast,> 100 µM
same,TGI,SF-295 CNS,> 100 µM
same,TGI,UACC-62 melanoma,> 100 µM
same,TGI,COLO 205 colon,> 100 µM
same,TGI,MDA-N,> 100 µM
same,TGI,786-0 renal,> 100 µM
same,TGI,HL-60(TB) leukemia,> 79.8 µM
same,TGI,M14 melanoma,> 100 µM
same,TGI,NCI/ADR-RES ovarian,> 100 µM
same,TGI,SK-OV-3 ovarian,> 100 µM
same,TGI,ACHN renal,> 100 µM
same,TGI,SNB-19 CNS,> 100 µM
same,TGI,SF-268 CNS,> 100 µM
same,TGI,NCI-H460 lung,> 100 µM
same,TGI,NCI-H226 lung,> 100 µM
same,TGI,DU-145 prostate,> 100 µM
same,TGI,HOP-92 NSCLC,> 100 µM
same,TGI,OVCAR-4 ovarian,> 100 µM
same,TGI,EKVX NSCLC,> 100 µM
same,TGI,UACC-257 melanoma,> 100 µM
same,TGI,HT29 colon,> 100 µM
same,TGI,LOX IMVI melanoma,> 100 µM
same,TGI,BT-549 breast,> 100 µM
same,TGI,SK-MEL-5 melanoma,> 100 µM
same,TGI,HCT-116 colon,> 100 µM
same,TGI,UO-31 renal,> 100 µM
same,TGI,SK-MEL-2 melanoma,> 100 µM
same,TGI,NCI-H23 lung,> 100 µM
same,TGI,OVCAR-5 ovarian,> 100 µM
same,TGI,SNB-75 CNS,> 100 µM
same,TGI,HCC-2998 colon,> 100 µM
same,TGI,SK-MEL-28 melanoma,> 100 µM
same,TGI,TK-10 renal,> 100 µM
same,TGI,SF-539 CNS,> 100 µM
